Source: patent US20040229772A1, “Peptides responsive to antibodies against consensus peptide of the CS4-CFA/I family proteins” (priority 1996, published 2004)
No end group written: not given here.

Key:
Antibody to CS4 = assay: ELISA of 8-mer peptides (pins) with rabbit serum; assay type: binding; details: a listed pin number means recognized
Procedure: (§1) Blocks of pins for cleavable syntheses were obtained from Chiron Mimotopes U.S. Peptide synthesis was carried out according to the manufacturer's instructions using Opfp-derivatized amino acids. Peptides of length 8 with 7 overlap were manufactured in order to locate all linear epitopes in the sequence with a highest redundancy. […] Peptides were cleaved from the pins using 0.1 M phosphate buffer, pH 8.0, containing 40% acetonitrile. Two peptides were made and sacrificed for amino acid analysis as proof of peptide purity. A dinitrophenol (DNP) pin was included so that the efficiency of the cleavage could be monitored spectrophotometrically.
(§2) For blocking, a composition containing 5% nonfat dry milk in PBS+0.2% sodium azide was used. Stock streptavidin (Calbiochem Corp., La Jolla, Calif.) at 1 mg/ml in water was kept frozen in aliquots for up to several months. On the day of use, the stock streptavidin was diluted in phosphate buffered saline (PBS) to provide a concentration of 5 μg/ml streptavidin. Goat F(ab′)2 anti-mouse, anti-rabbit and anti-human sera were labeled with alkaline phosphatase (Biosource, International, Camarillo, Calif.).
(§3) Streptavidin was plated at 5 μg/ml, 50 μl per well, and incubated over night at 4° C. Plates were then washed by hand (Nunc Immunowash 12 hand plate washer. Fisher Scientific, Pittsburgh, Pa.) three times with PBS/0.1% TWEEN 20™. Peptides were then diluted to 10 μg/ml in PBS and plated at 50-μl/well. After incubation for one hour at room temperature followed by washing, the peptides were incubated with sera diluted in blocker at appropriate concentrations (5% nonfat dry milk) for 2 hours at room temperature. After washing the wells, 50 μl of phosphatase-labeled anti-serum IgG diluted 1:1000 in blocker was added to each well and was allowed to incubate at room temperature for 1 hour. The plates were washed. The 100 μl of PNDP (p-nitrophenylphosphate) substrate, prepared according to the manufacturer's instructions, was added to each well. Results were read at 5, 15 and 60 minutes using a microtiter plate reader (UVmax™, Moelcular Devices, Sunnyvale, Calif.).
(§4) Partially to fully purified colonization factor (40% to 100% pure) was run on SDS-PAGE gel (5-15 μg/lane of 10 comb gel (precast 10 comb, 1 mm thickness, Tris-tricene gel from Novex, San Diego, Calif.), for primary immunization run 9 lanes for each rabbit (45-135 μg CF protein with ½ the amount used in the primary immunization used as a booster). The gel was stained with 0.5% COOMASSIE BLUE™ (BioRad, Richmond, Calif.) in water for 1 hour, then destained with multiple changes of water for 60-90 minutes. The colonization factor bands were excised with a scalpel and the excess gel trimmed. The bands were stored at −20° C. until use.
(§5) After removal from freezer, the gel slices were transferred to a glass tissue homogenizer using a teflon pestle with grooves at the tip. The slices were ground with 0.3 ml phosphate buffered saline (PBS). The drill was run to homogenize the gel for 30 to 45 seconds. (In the instant case, a pestle with a shaft of steel was used which allowed placement of the pestle into the chuck of the hand-held drill.)
(§6) The homogenate was transferred to 16 mm×150 mm test tubes with disposable plastic transfer pipet. The pestle and homogenizer vessel was rinsed repeatedly with PBS and the contents transferred to the 16×150 test tube until a volume of 1.2 ml was obtained.
(§7) The sample obtained above was placed in a vortex mixer and vortexed on high. Freund's adjuvant 1.2 ml was added. (Complete Freund's was used for the primary immunization, while incomplete Freund's was used for the boost.) The composition was vortexed until a thick emulsion of almost a butter consistency was obtained (12-20 minutes).
(§8) A preimmune serum was obtained on all animals, which were then immunized with the 1 ml of the emulsion subcutaneously at 4-6 spots on the shoulders and rump. The animals were boosted three weeks later, then bleed 10 days after the booster shots. […]

Antibody to 0166 upper = assay: ELISA of 8-mer peptides (pins) with rabbit serum; assay type: binding
Procedure: as §1, §2, §3, §4, §5, §6, §7, §8

Antibody to 0166 lower = assay: ELISA of 8-mer peptides (pins) with rabbit serum; assay type: binding
Procedure: as §1, §2, §3, §4, §5, §6, §7, §8

Antibody to CFA/I = assay: ELISA of 8-mer peptides (pins) with rabbit serum; assay type: binding
Procedure: as §1, §2, §3, §4, §5, §6, §7, §8

Antibody to CS1 = assay: ELISA of 8-mer peptides (pins) with rabbit serum; assay type: binding; details: a listed pin number means recognized
Procedure: as §1, §2, §3, §4, §5, §6, §7, §8

[1] = test system: antibodies raised to the consensus peptide; assay: ELISA of 8-mer peptides with rabbit antibodies; assay type: binding; details: for interaction of peptides with the antibodies raised to the consensus peptide: rabbit antibodies raised to consensus peptide SEQ ID NO:1; for reactivity of 8-mer peptides with antibodies from the rabbits: rabbit antibodies raised to consensus peptide SEQ ID NO:1, biotin-SGSG-peptide on streptavidin
Procedure: as §1, §2, §3
Antibodies from the rabbits were then tested against the specific 8-mer peptides obtained from SEQ ID NO:1 in the manner disclosed above to determine the binding sites of the antibodies in the sera with the consensus peptide.

Antibody to CS2 = assay: ELISA of 8-mer peptides (pins) with rabbit serum; assay type: binding; details: a listed pin number means recognized
Procedure: as §1, §2, §3, §4, §5, §6, §7, §8

whole bacteria, CF CFA/1 = assay: Agglutination of whole bacteria by serum of immunized rabbits; assay type: cell-based, E. coli; details: two rabbits immunized per preparation
whole bacteria, CF CS1 = assay: as above; assay type: cell-based, E. coli; details: two rabbits immunized per preparation
CS17 = assay: Western blot of immune serum with denatured protein; assay type: binding, E. coli; details: 4 strong reaction, rabbit serum
Procedure: (§9) Rabbits were bled, then immunized on day 0 with a composition containing 280 μg peptide/BSA conjugate in Freund's complete adjuvant. On day 21, the animals were boosted with 140 μg peptide/BSA conjugate in Freund's incomplete adjuvant. Blood was drawn on day 32. The interaction of antibodies raised against the specific antigens of the denatured proteins of the various strains was studied by comparing interaction of serum from the animals obtained on day 0 with response on to serum from the animals obtained on day 32 by Western blot. In all instances, the Western blot was negative for reaction with serum obtained on day 0. The Western blot data on interaction of immune serum collected on day 32 with the denatured proteins is given below with 0 being no reaction and 4 being a strong reaction:
(§10) Rabbits were given a composition containing 400 μg peptide of the formula: […] (SEQ ID NO:1) in complete Freund's adjuvant. The response was evaluated as in Example 2:
(§11) The same study was done comparing antibodies raised to denatured proteins of PCF 0166.
(§12) Effect of antibody raised to whole CS2 protein was studied in the manner of example 5.

CS4 = assay: as above; assay type: binding, E. coli; details: 4 strong reaction, rabbit serum
Procedure: as §9, §10, §11, §12

CS1 = assay: as above; assay type: binding, E. coli; details: 4 strong reaction, rabbit serum
Procedure: as §9, §10, §11, §12

0166 = assay: as above; assay type: binding, E. coli; details: 4 strong reaction, rabbit serum
Procedure: as §9, §10, §11, §12

whole bacteria, CF CS4 = assay: Agglutination of whole bacteria by serum of immunized rabbits; assay type: cell-based, E. coli; details: two rabbits immunized per preparation
whole bacteria, CF CS2 = assay: as above; assay type: cell-based, E. coli; details: two rabbits immunized per preparation
whole bacteria, CF 0166 = assay: as above; assay type: cell-based, E. coli; details: two rabbits immunized per preparation
whole bacteria, CF CS17 = assay: as above; assay type: cell-based, E. coli; details: two rabbits immunized per preparation
CS2 = assay: Western blot of immune serum with denatured protein; assay type: binding, E. coli; details: 4 strong reaction, rabbit serum
Procedure: as §9, §10, §11, §12

CFA/I = assay: as above; assay type: binding, E. coli; details: 4 strong reaction, rabbit serum
Procedure: as §9, §10, §11, §12

[2] = rabbit 1081, a listed pin number means recognized
[3] = rabbit 1082, a listed pin number means recognized
[4] = rabbit 1079, a listed pin number means recognized

## PTIDLLQA (listed as Escherichia coli) [compound 13]
Antibody to CS4; Antibody to CS4, rabbit 938
  pins (8-aa peptide) recognized by serum: 13
Antibody to CS4; Antibody to CS4, rabbit 940
  pins (8-aa peptide) recognized by serum: 13
Antibody to 0166 upper; rabbit 934, a listed pin number means recognized
  pins (8-aa peptide) recognized by serum: 13
Antibody to 0166 upper; [2]
  pins (8-aa peptide) recognized by serum: 13
Antibody to 0166 lower; [3]
  pins (8-aa peptide) recognized by serum: 13
Antibody to 0166 lower; rabbit 1083, a listed pin number means recognized
  pins (8-aa peptide) recognized by serum: 13
Antibody to CFA/I; rabbit 1078, a listed pin number means recognized
  pins (8-aa peptide) recognized by serum: 13
Antibody to CFA/I; [4]
  pins (8-aa peptide) recognized by serum: 13
Antibody to CS1; Antibody to CS1, rabbit 1089
  pins (8-aa peptide) recognized by serum: 13
Antibody to CS1; Antibody to CS1, rabbit 1090
  pins (8-aa peptide) recognized by serum: 13
[1]
  interaction of peptides with the antibodies raised to the consensus peptide: more reliably interactive
  reactivity of 8-mer peptides with antibodies from the rabbits: most reactive

## VDPTIDLL (listed as Escherichia coli) [compound 11]
Antibody to CS4; Antibody to CS4, rabbit 938
  pins (8-aa peptide) recognized by serum: 11
Antibody to CS4; Antibody to CS4, rabbit 940
  pins (8-aa peptide) recognized by serum: 11
Antibody to 0166 upper; [2]
  pins (8-aa peptide) recognized by serum: 11
Antibody to 0166 lower; [3]
  pins (8-aa peptide) recognized by serum: 11
Antibody to CFA/I; [4]
  pins (8-aa peptide) recognized by serum: 11
Antibody to CS1; Antibody to CS1, rabbit 1089
  pins (8-aa peptide) recognized by serum: 11
Antibody to CS1; Antibody to CS1, rabbit 1090
  pins (8-aa peptide) recognized by serum: 11
Antibody to CS2; Antibody to CS2, rabbit 1076
  pins (8-aa peptide) recognized by serum: 11
Antibody to CS2; Antibody to CS2, rabbit 1077
  pins (8-aa peptide) recognized by serum: 11
[1]
  interaction of peptides with the antibodies raised to the consensus peptide: more reliably interactive
  reactivity of 8-mer peptides with antibodies from the rabbits: most reactive

## VEKNITVTASVDPTIDLLQADGSALPSAVALTYSPA (listed as Escherichia coli) [SEQ ID NO:1, 36 amino acid consensus peptide of the CS4-CFA/I family]
Whole bacteria, CF CFA/1
  agglutination of whole bacteria by serum: 0/2
Whole bacteria, CF CS1
  agglutination of whole bacteria by serum: 0/2
CS17; titer 1:50, 0 no reaction
  Western blot reaction of immune serum with denatured protein: 2
CS17; titer 1:500, 0 no reaction
  Western blot reaction of immune serum with denatured protein: 0
CS17; titer 1:5000, 0 no reaction
  Western blot reaction of immune serum with denatured protein: 0
CS17; titer 1:50000, 0 no reaction
  Western blot reaction of immune serum with denatured protein: 0
CS4; titer 1:50, 0 no reaction
  Western blot reaction of immune serum with denatured protein: 2
CS4; titer 1:500, 0 no reaction
  Western blot reaction of immune serum with denatured protein: 0
CS4; titer 1:5000, 0 no reaction
  Western blot reaction of immune serum with denatured protein: 0
CS4; titer 1:50000, 0 no reaction
  Western blot reaction of immune serum with denatured protein: 0
CS1; titer 1:50, 0 no reaction
  Western blot reaction of immune serum with denatured protein: 4
CS1; titer 1:500, 0 no reaction
  Western blot reaction of immune serum with denatured protein: 4
CS1; titer 1:5000, 0 no reaction
  Western blot reaction of immune serum with denatured protein: 2
CS1; titer 1:50000, 0 no reaction
  Western blot reaction of immune serum with denatured protein: 1
0166; titer 1:50, 0 no reaction
  Western blot reaction of immune serum with denatured protein: 4
0166; titer 1:500, 0 no reaction
  Western blot reaction of immune serum with denatured protein: 2
Whole bacteria, CF CS4
  agglutination of whole bacteria by serum: 0/2
Whole bacteria, CF CS2
  agglutination of whole bacteria by serum: 0/2
Whole bacteria, CF 0166
  agglutination of whole bacteria by serum: 0/2
Whole bacteria, CF CS17
  agglutination of whole bacteria by serum: 0/2

## peptide/BSA conjugate: consensus peptide with added terminal cysteine (SEQ ID NO:37) conjugated to iodoacetylated bovine serum albumin (CVEKNITVTASVDPTIDLLQADGSALPSAVALTYSPA; also: conjugated via added terminal Cys to iodoacetylated BSA; listed as Escherichia coli)
Whole bacteria, CF CFA/1
  agglutination of whole bacteria by serum: 1/2
Whole bacteria, CF CS1
  agglutination of whole bacteria by serum: 1/2
CS2; titer 1:50, 0 no reaction
  Western blot reaction of immune serum with denatured protein: 4
CS2; titer 1:500, 0 no reaction
  Western blot reaction of immune serum with denatured protein: 4
CS2; titer 1:5000, 0 no reaction
  Western blot reaction of immune serum with denatured protein: 4
CS17; titer 1:50, 0 no reaction
  Western blot reaction of immune serum with denatured protein: 4
CS17; titer 1:500, 0 no reaction
  Western blot reaction of immune serum with denatured protein: 3
CS17; titer 1:5000, 0 no reaction
  Western blot reaction of immune serum with denatured protein: 2
CS17; titer 1:50000, 0 no reaction
  Western blot reaction of immune serum with denatured protein: 0.5
CFA/I; titer 1:50, 0 no reaction
  Western blot reaction of immune serum with denatured protein: 4
CFA/I; titer 1:500, 0 no reaction
  Western blot reaction of immune serum with denatured protein: 3
CFA/I; titer 1:5000, 0 no reaction
  Western blot reaction of immune serum with denatured protein: 2
CS4; titer 1:50, 0 no reaction
  Western blot reaction of immune serum with denatured protein: 4
CS4; titer 1:500, 0 no reaction
  Western blot reaction of immune serum with denatured protein: 4
CS4; titer 1:5000, 0 no reaction
  Western blot reaction of immune serum with denatured protein: 3
CS4; titer 1:50000, 0 no reaction
  Western blot reaction of immune serum with denatured protein: 2
CS1; titer 1:50, 0 no reaction
  Western blot reaction of immune serum with denatured protein: 4
CS1; titer 1:500, 0 no reaction
  Western blot reaction of immune serum with denatured protein: 4
CS1; titer 1:5000, 0 no reaction
  Western blot reaction of immune serum with denatured protein: 4
CS1; titer 1:50000, 0 no reaction
  Western blot reaction of immune serum with denatured protein: 4
0166; titer 1:50, 0 no reaction
  Western blot reaction of immune serum with denatured protein: 4
0166; titer 1:500, 0 no reaction
  Western blot reaction of immune serum with denatured protein: 1
0166; titer 1:5000, 0 no reaction
  Western blot reaction of immune serum with denatured protein: 3
Whole bacteria, CF CS4
  agglutination of whole bacteria by serum: 0/2
Whole bacteria, CF CS2
  agglutination of whole bacteria by serum: 2/2
Whole bacteria, CF 0166
  agglutination of whole bacteria by serum: 1/2
Whole bacteria, CF CS17
  agglutination of whole bacteria by serum: 0/2
